In patent US10392391B2 (Vertex Pharmaceuticals Incorporated, priority 2012, dated 2019) one finds Ki data, which are given here for 31 molecules.

The test addresses ATR kinase (full-length ATR) (Homo sapiens (Human), UniProt Q13535). Description: ATR inhibition assay (radioactive-phosphate incorporation). The format is biochemical. Conditions: Ki(app), 5 nM full-length ATR, 10 μM ATP, 25° C. In short, it runs like this: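 Ki(app) was fitted by non-linear regression to background-corrected initial rates. Full-length ATR (5 nM) phosphorylated 800 μM peptide using 10 μM [γ-33P]ATP at 25° C in Tris/HCl pH 7.5 buffer with MgCl2, DTT and 7% DMSO. After 10-minute compound pre-incubation and 24-hour reaction, phosphocellulose filters were scintillation counted.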

Molecules are shown by their SMILES. Some results are limits rather than exact numbers.

Chain of ATR kinase (full-length ATR) (Q13535 whole entry): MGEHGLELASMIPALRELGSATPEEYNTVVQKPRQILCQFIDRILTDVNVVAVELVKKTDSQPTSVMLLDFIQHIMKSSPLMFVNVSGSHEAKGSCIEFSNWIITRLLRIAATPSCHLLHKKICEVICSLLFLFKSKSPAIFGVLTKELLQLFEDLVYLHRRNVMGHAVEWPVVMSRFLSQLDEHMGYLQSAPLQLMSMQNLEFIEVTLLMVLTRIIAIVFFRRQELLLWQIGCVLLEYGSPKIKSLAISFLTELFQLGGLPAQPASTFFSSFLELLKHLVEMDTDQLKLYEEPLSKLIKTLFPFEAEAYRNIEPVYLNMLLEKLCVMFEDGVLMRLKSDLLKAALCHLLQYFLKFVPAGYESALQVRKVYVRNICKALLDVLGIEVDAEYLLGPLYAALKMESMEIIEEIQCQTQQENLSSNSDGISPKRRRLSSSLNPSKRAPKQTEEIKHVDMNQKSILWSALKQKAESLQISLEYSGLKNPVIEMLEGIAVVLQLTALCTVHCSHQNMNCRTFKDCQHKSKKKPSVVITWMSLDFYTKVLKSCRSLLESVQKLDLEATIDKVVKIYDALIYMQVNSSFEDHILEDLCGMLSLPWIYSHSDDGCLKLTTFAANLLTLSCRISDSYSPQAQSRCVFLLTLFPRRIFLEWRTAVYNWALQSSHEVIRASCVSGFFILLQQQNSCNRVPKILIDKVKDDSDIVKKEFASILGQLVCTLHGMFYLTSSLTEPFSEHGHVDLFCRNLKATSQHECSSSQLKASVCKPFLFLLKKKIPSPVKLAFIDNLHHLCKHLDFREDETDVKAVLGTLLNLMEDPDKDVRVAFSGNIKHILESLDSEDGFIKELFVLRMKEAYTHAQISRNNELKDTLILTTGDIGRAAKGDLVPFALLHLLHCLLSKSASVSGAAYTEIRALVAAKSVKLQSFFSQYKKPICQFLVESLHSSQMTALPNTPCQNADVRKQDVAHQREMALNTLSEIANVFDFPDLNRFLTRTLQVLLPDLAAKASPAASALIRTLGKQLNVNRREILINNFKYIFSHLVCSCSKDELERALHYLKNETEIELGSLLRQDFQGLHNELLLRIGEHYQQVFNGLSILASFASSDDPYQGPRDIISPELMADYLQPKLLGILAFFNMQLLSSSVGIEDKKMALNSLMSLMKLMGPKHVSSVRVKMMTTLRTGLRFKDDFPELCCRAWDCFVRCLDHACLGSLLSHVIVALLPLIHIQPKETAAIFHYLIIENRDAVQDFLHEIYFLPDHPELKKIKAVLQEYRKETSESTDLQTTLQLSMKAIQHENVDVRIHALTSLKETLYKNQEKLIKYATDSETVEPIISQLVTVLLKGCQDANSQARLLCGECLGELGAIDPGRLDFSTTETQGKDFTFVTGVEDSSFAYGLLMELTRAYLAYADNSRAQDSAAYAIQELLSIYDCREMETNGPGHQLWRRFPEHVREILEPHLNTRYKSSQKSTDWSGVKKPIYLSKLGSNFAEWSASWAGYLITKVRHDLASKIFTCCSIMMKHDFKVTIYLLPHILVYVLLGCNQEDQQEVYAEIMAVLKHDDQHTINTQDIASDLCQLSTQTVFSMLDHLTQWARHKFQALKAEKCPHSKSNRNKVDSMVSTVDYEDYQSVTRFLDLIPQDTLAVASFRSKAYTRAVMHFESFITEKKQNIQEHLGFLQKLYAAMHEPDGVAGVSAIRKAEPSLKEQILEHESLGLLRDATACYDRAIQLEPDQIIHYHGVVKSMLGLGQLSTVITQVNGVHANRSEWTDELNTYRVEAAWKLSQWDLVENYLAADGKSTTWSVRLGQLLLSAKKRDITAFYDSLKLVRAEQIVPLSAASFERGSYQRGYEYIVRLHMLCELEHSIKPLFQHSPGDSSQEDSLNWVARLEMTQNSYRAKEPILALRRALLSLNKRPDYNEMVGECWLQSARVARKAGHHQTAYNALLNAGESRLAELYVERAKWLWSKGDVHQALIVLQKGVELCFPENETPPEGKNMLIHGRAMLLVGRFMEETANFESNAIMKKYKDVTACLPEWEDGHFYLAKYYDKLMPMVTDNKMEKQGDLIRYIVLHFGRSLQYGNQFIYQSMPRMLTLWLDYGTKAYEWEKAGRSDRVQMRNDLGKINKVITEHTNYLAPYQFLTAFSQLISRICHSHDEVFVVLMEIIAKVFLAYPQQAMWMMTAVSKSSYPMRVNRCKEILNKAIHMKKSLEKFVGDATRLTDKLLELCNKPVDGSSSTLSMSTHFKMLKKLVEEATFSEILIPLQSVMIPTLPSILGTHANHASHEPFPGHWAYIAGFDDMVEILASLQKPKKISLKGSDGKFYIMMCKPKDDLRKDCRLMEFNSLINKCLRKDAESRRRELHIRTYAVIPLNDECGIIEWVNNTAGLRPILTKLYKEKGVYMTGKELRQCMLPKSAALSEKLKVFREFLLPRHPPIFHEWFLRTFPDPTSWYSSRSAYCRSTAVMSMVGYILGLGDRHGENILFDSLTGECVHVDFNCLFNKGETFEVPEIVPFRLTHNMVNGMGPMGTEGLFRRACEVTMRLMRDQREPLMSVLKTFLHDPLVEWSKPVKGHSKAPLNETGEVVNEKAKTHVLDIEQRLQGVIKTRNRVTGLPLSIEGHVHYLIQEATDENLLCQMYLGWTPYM

As for `CN1CCN(C(=O)[C@H]2CC[C@@H](Oc3ccncc3NC(=O)c3c(N)nn4cc(F)cnc34)CC2)CC1` [I-O-19, 2-amino-6-fluoro-N-(4-(((1s,4s)-4-(4-methylpiperazine-1-carbonyl)cyclohexyl)oxy)pyridin-3-yl)pyrazolo[1,5-a]pyrimidine-3-carboxamide], the Ki is 10 to 1000 nM.
Turning to `Nc1nn2cc(Cl)cnc2c1C(=O)Nc1cnccc1N1CCN(C2CC2)CC1` [I-N-64, 2-amino-6-chloro-N-(4-(4-cyclopropylpiperazin-1-yl)pyridin-3-yl)pyrazolo[1,5-a]pyrimidine-3-carboxamide], the Ki is 10 to 1000 nM.
For the molecule `CN1CC2(CCN(c3ccncc3NC(=O)c3c(N)nn4cc(F)cnc34)CC2)OC1=O` [I-N-216, 2-amino-6-fluoro-N-(4-(3-methyl-2-oxo-1-oxa-3,8-diazaspiro[4.5]decan-8-yl)pyridin-3-yl)pyrazolo[1,5-a]pyrimidine-3-carboxamide], the Ki lay in the range of 10 to 1000 nM.
The same measure for `Nc1nn2cc(F)cnc2c1C(=O)Nc1cnccc1N1CCN2C(=O)OCC2C1` (stereo not shown) [I-N-238, 2-amino-6-fluoro-N-(4-(3-oxotetrahydro-1H-oxazolo[3,4-a]pyrazin-7(3H)-yl)pyridin-3-yl)pyrazolo[1,5-a]pyrimidine-3-carboxamide]: 10 to 1000 nM.
The same measure for `Nc1nn2cc(F)cnc2c1C(=O)Nc1cnccc1N1CCC(CN2CCC(F)(F)C2)CC1` [I-N-197, 2-amino-N-(4-(4-((3,3-difluoropyrrolidin-1-yl)methyl)piperidin-1-yl)pyridin-3-yl)-6-fluoropyrazolo[1,5-a]pyrimidine-3-carboxamide]: 10 to 1000 nM; for `N#CCc1cnc2c(C(=O)Nc3cnccc3OC3CCCC3)c(N)nn2c1` [I-O-43, 2-amino-6-(cyanomethyl)-N-(4-(cyclopentyloxy)pyridin-3-yl)pyrazolo[1,5-a]pyrimidine-3-carboxamide]: < 10 nM; for `Cc1nccnc1-c1ccncc1NC(=O)c1c(N)nn2cc(F)cnc12` [I-C-62, 2-amino-6-fluoro-N-(4-(3-methylpyrazin-2-yl)pyridin-3-yl)pyrazolo[1,5-a]pyrimidine-3-carboxamide]: 10 to 1000 nM.
To `CN1CCN(c2c(Cl)cncc2NC(=O)c2c(N)nn3cc(Cl)cnc23)CC1` [I-N-41, 2-amino-6-chloro-N-(5-chloro-4-(4-methylpiperazin-1-yl)pyridin-3-yl)pyrazolo[1,5-a]pyrimidine-3-carboxamide] belongs 10 to 1000 nM; to `N#CC1(C(=O)N2CCC(c3ccncc3NC(=O)c3c(N)nn4cc(F)cnc34)CC2)CC1` [I-C-71, 2-amino-N-(4-(1-(1-cyanocyclopropanecarbonyl)piperidin-4-yl)pyridin-3-yl)-6-fluoropyrazolo[1,5-a]pyrimidine-3-carboxamide], 10 to 1000 nM.
On to `Nc1nn2cc(Cl)cnc2c1C(=O)Nc1cnccc1N1CCC(N2CCCC2)CC1` [I-N-105, 2-amino-6-chloro-N-(4-(4-(pyrrolidin-1-yl)piperidin-1-yl)pyridin-3-yl)pyrazolo[1,5-a]pyrimidine-3-carboxamide], for which the Ki was 10 to 1000 nM.
With `COCCn1cncc1-c1ccncc1NC(=O)c1c(N)nn2cc(F)cnc12` [I-C-83, 2-amino-6-fluoro-N-(4-(1-(2-methoxyethyl)-1H-imidazol-5-yl)pyridin-3-yl)pyrazolo[1,5-a]pyrimidine-3-carboxamide], the Ki was in the range of 10 to 1000 nM.
Take `N#CCc1cnc2c(C(=O)Nc3cnccc3OC3CCNCC3)c(N)nn2c1` [I-O-84, 2-amino-6-(cyanomethyl)-N-(4-(piperidin-4-yloxy)pyridin-3-yl)pyrazolo[1,5-a]pyrimidine-3-carboxamide]: the Ki was < 10 nM.
As to `Nc1nn2cc(F)cnc2c1C(=O)Nc1cncc(F)c1N1CCC(N2CCOCC2)CC1` [I-N-189, 2-amino-6-fluoro-N-(5-fluoro-4-(4-morpholinopiperidin-1-yl)pyridin-3-yl)pyrazolo[1,5-a]pyrimidine-3-carboxamide], the Ki fell in the range of 10 to 1000 nM.
To `Nc1nn2cc(F)cnc2c1C(=O)Nc1cnccc1N1CCC(S(=O)(=O)N2CCN3CCC2CC3)CC1` [I-N-196, N-(4-(4-(1,4-diazabicyclo[3.2.2]nonan-4-ylsulfonyl)piperidin-1-yl)pyridin-3-yl)-2-amino-6-fluoropyrazolo[1,5-a]pyrimidine-3-carboxamide] belongs 10 to 1000 nM; to `CN(C)CCCN(C)C(=O)C1CCN(c2c(F)cncc2NC(=O)c2c(N)nn3cc(F)cnc23)CC1` [I-G-16, 2-amino-N-(4-(4-((3-(dimethylamino)propyl)(methyl)carbamoyl)piperidin-1-yl)-5-fluoropyridin-3-yl)-6-fluoropyrazolo[1,5-a]pyrimidine-3-carboxamide], 10 to 1000 nM.
To `Nc1nn2cc(F)cnc2c1C(=O)Nc1cncc(F)c1N1CCN(C(=O)C2CCOC2)CC1` (stereo not shown) [I-N-274, 2-amino-6-fluoro-N-(5-fluoro-4-(4-(tetrahydrofuran-3-carbonyl)piperazin-1-yl)pyridin-3-yl)pyrazolo[1,5-a]pyrimidine-3-carboxamide] belongs 10 to 1000 nM; to `CN1CCN(C(=O)C2(C#N)CCN(c3c(F)cncc3NC(=O)c3c(N)nn4cc(F)cnc34)CC2)CC1` [I-G-25, 2-amino-N-(4-(4-cyano-4-(4-methylpiperazine-1-carbonyl)piperidin-1-yl)-5-fluoropyridin-3-yl)-6-fluoropyrazolo[1,5-a]pyrimidine-3-carboxamide], 10 to 1000 nM; to `CN1CCN(CC2CCN(c3c(F)cncc3NC(=O)c3c(N)nn4cc(F)cnc34)CC2)CC1` [I-N-150, 2-amino-6-fluoro-N-(5-fluoro-4-(4-((4-methylpiperazin-1-yl)methyl)piperidin-1-yl)pyridin-3-yl)pyrazolo[1,5-a]pyrimidine-3-carboxamide], 10 to 1000 nM.
To `CN(C)S(=O)(=O)C1CCN(c2c(F)cncc2NC(=O)c2c(N)nn3cc(F)cnc23)CC1` [I-N-146, 2-amino-N-(4-(4-(N,N-dimethylsulfamoyl)piperidin-1-yl)-5-fluoropyridin-3-yl)-6-fluoropyrazolo[1,5-a]pyrimidine-3-carboxamide] belongs 10 to 1000 nM.
Take `C[C@@H]1CN(C(=O)C2CCN(c3c(F)cncc3NC(=O)c3c(N)nn4cc(F)cnc34)CC2)CCN1C` [I-G-50, (R)-2-amino-N-(4-(4-(3,4-dimethylpiperazine-1-carbonyl)piperidin-1-yl)-5-fluoropyridin-3-yl)-6-fluoropyrazolo[1,5-a]pyrimidine-3-carboxamide]: the Ki was in the range of 10 to 1000 nM.
To `CC(C)N1CCC(C(=O)N2CCN(c3c(F)cncc3NC(=O)c3c(N)nn4cc(F)cnc34)CC2)C1` (stereo not shown) [I-N-206, 2-amino-6-fluoro-N-(5-fluoro-4-(4-(1-isopropylpyrrolidine-3-carbonyl)piperazin-1-yl)pyridin-3-yl)pyrazolo[1,5-a]pyrimidine-3-carboxamide] belongs 10 to 1000 nM; to `CS(=O)(=O)C1CN(C(=O)C2CCN(c3ccncc3NC(=O)c3c(N)nn4cc(F)cnc34)CC2)C1` [I-G-89, 2-amino-6-fluoro-N-(4-(4-(3-(methylsulfonyl)azetidine-1-carbonyl)piperidin-1-yl)pyridin-3-yl)pyrazolo[1,5-a]pyrimidine-3-carboxamide], 10 to 1000 nM; to `Nc1nn2cc(F)cnc2c1C(=O)Nc1cncc(F)c1N1CCS(=O)(=O)CC1` [I-N-250, 2-amino-N-(4-(1,1-dioxidothiomorpholino)-5-fluoropyridin-3-yl)-6-fluoropyrazolo[1,5-a]pyrimidine-3-carboxamide], 10 to 1000 nM.
As for `Nc1nn2cc(F)cnc2c1C(=O)Nc1cncc(F)c1N1CCN(C(=O)C2CCN(C3COC3)CC2)CC1` [I-N-211, 2-amino-6-fluoro-N-(5-fluoro-4-(4-(1-(oxetan-3-yl)piperidine-4-carbonyl)piperazin-1-yl)pyridin-3-yl)pyrazolo[1,5-a]pyrimidine-3-carboxamide], the Ki lay in the range of 10 to 1000 nM.
Turning to `Nc1nn2cc(Cl)cnc2c1C(=O)Nc1cnccc1O[C@@H]1CCOC1` [I-O-54, (R)-2-amino-6-chloro-N-(4-((tetrahydrofuran-3-yl)oxy)pyridin-3-yl)pyrazolo[1,5-a]pyrimidine-3-carboxamide], the Ki fell in the range of 10 to 1000 nM.
The same measure for `CN1CCN(c2cc(N)ncc2NC(=O)c2c(N)nn3cc(Cl)cnc23)CC1` [I-N-50, 2-amino-N-(6-amino-4-(4-methylpiperazin-1-yl)pyridin-3-yl)-6-chloropyrazolo[1,5-a]pyrimidine-3-carboxamide]: 10 to 1000 nM; for `Nc1nn2cc(Cl)cnc2c1C(=O)Nc1cncc(F)c1N1CCN(C2COC2)CC1` [I-N-117, 2-amino-6-chloro-N-(5-fluoro-4-(4-(oxetan-3-yl)piperazin-1-yl)pyridin-3-yl)pyrazolo[1,5-a]pyrimidine-3-carboxamide]: 10 to 1000 nM.
To `CC(C)(C)NC(=O)C1CCN(c2c(F)cncc2NC(=O)c2c(N)nn3cc(F)cnc23)CC1` [I-G-19, 2-amino-N-(4-(4-(tert-butylcarbamoyl)piperidin-1-yl)-5-fluoropyridin-3-yl)-6-fluoropyrazolo[1,5-a]pyrimidine-3-carboxamide] belongs 10 to 1000 nM; to `COC(=O)N1CCN(c2c(F)cncc2NC(=O)c2c(N)nn3cc(F)cnc23)CC1` [I-N-261, methyl-4-(3-(2-amino-6-fluoropyrazolo[1,5-a]pyrimidine-3-carboxamido)-5-fluoropyridin-4-yl)piperazine-1-carboxylate], 10 to 1000 nM.
The same measure for `Cn1cncc1-c1ccncc1NC(=O)c1c(N)nn2cc(F)cnc12` [I-C-56, 2-amino-6-fluoro-N-(4-(1-methyl-1H-imidazol-5-yl)pyridin-3-yl)pyrazolo[1,5-a]pyrimidine-3-carboxamide]: 10 to 1000 nM; for `CN(C)C1CN(C(=O)C2CCN(c3c(F)cncc3NC(=O)c3c(N)nn4cc(F)cnc34)CC2)C1` [I-G-22, 2-amino-N-(4-(4-(3-(dimethylamino)azetidine-1-carbonyl)piperidin-1-yl)-5-fluoropyridin-3-yl)-6-fluoropyrazolo[1,5-a]pyrimidine-3-carboxamide]: 10 to 1000 nM.
